Where two headings read alike, the source gives them in different places.

One assay concerns cyclooxygenase. In words: In vitro effect on [14C]arachidonic acid metabolism in a cell-free homogenate of murine pulmonary tissue. The class given is biochemical, CBA mice. To be noted: compound 10^−4 M; for Prostanoids: b308 reads these as % cyclooxygenase inhibition; for 6-keto-PGF1α / PGF2α: first of only four cells in the row; for TXB2 / PGE2: second of only four cells in the row. How it is done: Studies of arachidonic acid metabolism was carried out on females CBA mice who where fed a standard vivarium fodder. Animals (mice) were sacrificed, lungs were extracted, homogenized in a glass homogenizer manufactured by the firm “Wheaton” (USA) at 4° C. in 10 volumes of 0.05 M Tris-HCl buffer. Aliquots (0.5 ml) of supernatant were incubated in 0.5 μCi [1-C^14]-arachidonic acid [C^14]-AA, “Amersham”, England; specific activity 50-60 μCi/mmole) at 37° C. for 30 minutes. Non-metabolized [αC^14]-AA and products of metabolism thereof were extracted in 20 volumes of chloroform and methanol mixture (1:1) in extraction efficacy not less than 90% assessed using [C^14]-PGF2α. [C^14]-AA and metabolites thereof were separated and identified using TLC (the plates Kieselgel 60 of the “Merck” firm, Germany) using as an organic phase, the system of solvents (ethylacetate, isooctane, acetic acid, water—110:50:20:100) and labeled standards. Densitometry of autoradiochromograms obtained on the X-ray film X-Omat AR (“Kodak”, USA) and HS 11 (“ORWO”, Germany), was performed on the densiscan KS 3 (“Kipp and Zonnen”, Holland). Quantitative analysis of individual eicosanoids was carried out using radiometry of fractions obtained by high-performance liquid chromatography (the HPLC-system of the “Gilson” form, France; the column ZORBAX C8 of the “Du Pont” firm, USA) and by elution of spots on TLC-plates. The tested compounds were administered at concentration 10^−4 M.

For assay [1], the system named is "acetic contortions" in mice. In words: Analgetic activity on the model "acetic contortions". It counts as in vivo, white mongrel mice. To be noted: dose 10 mg/kg (table title); for inhibition in vivo at 10 mg/kg / response vs control in vivo at 10 mg/kg: Mus musculus, ip, 0.25 h; for inhibition in vivo at 10 mg/kg: read-out: Analgetic effect (%); for response vs control in vivo at 10 mg/kg: read-out: C, % to the control; for C ± m (the number of contortions for 15 minutes): 60 minutes prior to acetic acid. How it is done:
The tests were conducted on males of white mongrel mice weighing 22-24 grams. The specific pain response (“contortions”) were elicited by intraperitoneal administration to mice of 0.75% acetic acid solution. The following signs were taken into consideration: the number of seizure contractions of abdominal muscles accompanied by stretching the hind limbs and sagging the back. Analgetic effect was assessed by decrease in the number of contortions in animals in percent to the control for 15 minutes post administration of acetic acid. The technique of the tests is disclosed in Koster R., Anderson M., de Beer B.//Fed. Proc. 1959. V. 18. P. 412. Compounds under testing were administered intraperitoneally (using a probe) at a dose 10 μg/kg 60 minutes prior to injection of the acid. Diclofenac (10 mg/kg) was used as a reference drug. Analgetic effect was calculated according to the formula: […]
wherein Ck is the number of contortions in the control group,
Co is the number of contortions in the test group.

Another assay deals with "hot plate" test in mice. In words: Analgetic activity on the model "hot plate". To be noted: 10 mg/kg; for response vs control in vivo at 10 mg/kg / change in vivo at 10 mg/kg: Mus musculus; for response vs control in vivo at 10 mg/kg / Latent time of NT (%): percent of background; for response vs control in vivo at 10 mg/kg: read-out: Latent time of NT (%); for change in vivo at 10 mg/kg: read-out: Analgesia (%). The class given is in vivo, white mongrel mice. How it is done:
The tests were conducted on males of white mongrel mice weighing 22-24 grams. The animals were individually placed on a hot plate (manufactured by the firm “Ugo Basile”), a temperature of which remained constant and was equal to 55° C. The following first manifestations of pain reaction were recorded: licking paws, jumping up prior to administration of a substance (background parameters) and 0.5, 1, 2, 3 and 4 hours post administration of a substance. Substances were administered […] (using a probe). A weighed amount of a substance was thoroughly mixed in 0.1 ml Tween 80 until a solution was obtained, then normal saline was added up to a volume of 0.5 ml. Average latent time of nociception threshold (NT) was calculated in every group. The results obtained were expressed in percent of the background values. Analgetic effect (in %) was calculated according to the formula: A−100%=X, wherein A is a background parameter; X is analgetic effect (in %)
A is (time 0.5 to 4 hours post administration×100%): background time
As reference drugs, Analgin (150 mg/kg), Paracetamol (200 mg/kg), Ketorol (10 mg/kg), were used.

The mark [2] stands for this setting: 120 minutes post administration.

`O=C(Cc1ccc(O)cc1)NCCc1ccccc1`: the Prostanoids in the assay with cyclooxygenase (37° C., 30 minutes) is listed as −40. Also, the “AA (arachidonic acid)” value in the assay on cyclooxygenase (37° C., 30 minutes, change) is listed as “+40”. Besides, in the assay on cyclooxygenase, the “6-keto-PGF1α / PGF2α” value is listed as −45 and the “TXB2 / PGE2” value is on record as −33. In assay [1], the inhibition in vivo at 10 mg/kg is 56.5%, the response vs control in vivo at 10 mg/kg is 43.5% and the “C ± m (the number of contortions for 15 minutes)” value worked out at 16.0 ± 4.5. Besides, the “latent time of nociception threshold, M ± m” value (“latent time … M ± m” below) in the assay with "hot plate" test in mice (60 minutes post administration) was 8.5 ± 0.27 s. The “latent time … M ± m” value in the assay with "hot plate" test in mice (setting [2]) amounted to 6.5 ± 1.16 s. Further, in the assay with "hot plate" test in mice (1 h, 60 minutes), the response vs control in vivo at 10 mg/kg turned out to be 160% and the change in vivo at 10 mg/kg was 59.6%. Moreover, in the assay on "hot plate" test in mice (2 h, 120 minutes), the response vs control in vivo at 10 mg/kg was found to be 123% and the change in vivo at 10 mg/kg worked out at 23.3%.

Regarding `O=C(CCc1ccccc1)NCCc1ccc(O)cc1` [Compound XII, 3-phenylpropionyltyramine], in the assay with cyclooxygenase (37° C., 30 minutes), the Prostanoids is recorded as −44. In the assay on cyclooxygenase (37° C., 30 minutes, change), the “AA (arachidonic acid)” value is listed as “+42”. For the same compound, in the assay on cyclooxygenase, the “6-keto-PGF1α / PGF2α” value is −42 and the “TXB2 / PGE2” value is listed as −47. Also, in assay [1], the inhibition in vivo at 10 mg/kg is 41.4%, the response vs control in vivo at 10 mg/kg came to 58.6% and the “C ± m (the number of contortions for 15 minutes)” value came to 20.1 ± 2.1.

`COC(=O)[C@H](Cc1ccccc1)NC(=O)CCc1ccc(O)cc1` [Compound XIII, 3-(p-hydroxyphenyl)-propionylphenylalanine methyl ester]: the inhibition in vivo at 10 mg/kg in assay [1] was determined as 48.4%. Moreover, the response vs control in vivo at 10 mg/kg in assay [1] amounted to 51.6%; with "hot plate" test in mice (0.5 h, 30 minutes), 107%; with "hot plate" test in mice (1 h, 60 minutes), 122%; with "hot plate" test in mice (2 h, 120 minutes), 124%. In addition, in assay [1], the “C ± m (the number of contortions for 15 minutes)” value is reported as 14.6 ± 1.8. Besides, the “latent time … M ± m” value with "hot plate" test in mice (30 minutes post administration) worked out at 5.9 ± 0.3 s; with "hot plate" test in mice (60 minutes post administration), 6.7 ± 0.7 s; with "hot plate" test in mice (setting [2]), 6.8 ± 0.3 s. Besides, the change in vivo at 10 mg/kg is 7.3% with "hot plate" test in mice (0.5 h, 30 minutes); 21.8% in the assay with "hot plate" test in mice (1 h, 60 minutes); 23.6% in the assay with "hot plate" test in mice (2 h, 120 minutes).

`O=C(CCc1ccc(O)cc1)N[C@@H](Cc1ccc(O)cc1)C(=O)O` [Compound XIV, 3-(p-hydroxyphenyl)-propionyltyrosine]: the Prostanoids in the assay with cyclooxygenase (37° C., 30 minutes) was −35. The 6-keto-PGF1α in the assay with cyclooxygenase (37° C., 30 minutes, change) is reported as −24. For the same compound, the “AA (arachidonic acid)” value in the assay with cyclooxygenase (37° C., 30 minutes, change) is “+84”. Moreover, the PGE2 with cyclooxygenase (37° C., 30 minutes, change) is −54. Further, in the assay on cyclooxygenase (37° C., 30 minutes, change), the PGF2α is −24. Further, the TXB2 with cyclooxygenase (37° C., 30 minutes, change) was −49. The “latent time … M ± m” value in the assay on "hot plate" test in mice (30 minutes post administration) came out at 5.59 ± 1.12 s; in the assay with "hot plate" test in mice (60 minutes post administration), 4.7 ± 0.51 s; in the assay on "hot plate" test in mice (setting [2]), 7.3 ± 1.09 s; in the assay with "hot plate" test in mice (240 minutes post administration) it was 6.78 ± 0.504 s. Moreover, the response vs control in vivo at 10 mg/kg in the assay on "hot plate" test in mice (0.5 h, 30 minutes) came out at 150%; in the assay with "hot plate" test in mice (1 h, 60 minutes) it was 126%; in the assay with "hot plate" test in mice (2 h, 120 minutes), 196%; in the assay on "hot plate" test in mice (4 h, 240 minutes), 182%. The change in vivo at 10 mg/kg was 50.3% in the assay on "hot plate" test in mice (0.5 h, 30 minutes); 26.3% in the assay on "hot plate" test in mice (1 h, 60 minutes); 96.2% with "hot plate" test in mice (2 h, 120 minutes); 82.3% in the assay with "hot plate" test in mice (4 h, 240 minutes).

For `CC(=O)N[C@@H](Cc1ccc(O)cc1)C(=O)NCCc1ccc(O)cc1` [Compound XXIX, acetyltyrosyltyramine], in assay [1], the inhibition in vivo at 10 mg/kg amounted to 42.9%. Further, the response vs control in vivo at 10 mg/kg worked out at 57.1% in assay [1]; 197% in the assay with "hot plate" test in mice (0.5 h, 30 minutes); 225% in the assay with "hot plate" test in mice (1 h, 60 minutes); 250% with "hot plate" test in mice (2 h, 120 minutes). Further, in assay [1], the “C ± m (the number of contortions for 15 minutes)” value was found to be 15.7 ± 1.9. Further, the “latent time … M ± m” value in the assay with "hot plate" test in mice (30 minutes post administration) came out at 6.3 ± 1.2 s; in the assay with "hot plate" test in mice (60 minutes post administration), 7.2 ± 0.8 s; in the assay with "hot plate" test in mice (setting [2]), 8.0 ± 1.0 s. Moreover, the change in vivo at 10 mg/kg stood at 197% in the assay on "hot plate" test in mice (0.5 h, 30 minutes); 125% with "hot plate" test in mice (1 h, 60 minutes); 150% with "hot plate" test in mice (2 h, 120 minutes).

As to `CC(=O)N[C@@H](Cc1ccc(O)cc1)C(=O)NCCc1ccccc1` [Compound XXVIII, acetyltyrosylphenylethylamine], in assay [1], the inhibition in vivo at 10 mg/kg turned out to be 42.1%. Further, the response vs control in vivo at 10 mg/kg in assay [1] was 57.9%; in the assay with "hot plate" test in mice (0.5 h, 30 minutes) it was 192%; in the assay on "hot plate" test in mice (1 h, 60 minutes) it was 169%; in the assay with "hot plate" test in mice (2 h, 120 minutes), 242%. Besides, the “C ± m (the number of contortions for 15 minutes)” value in assay [1] is reported as 15.9 ± 2.4. Besides, the “latent time … M ± m” value in the assay with "hot plate" test in mice (30 minutes post administration) was determined as 9.2 ± 1.8 s; with "hot plate" test in mice (60 minutes post administration), 8.1 ± 1.0 s; in the assay on "hot plate" test in mice (setting [2]) it was 11.6 ± 2.5 s. The change in vivo at 10 mg/kg in the assay with "hot plate" test in mice (0.5 h, 30 minutes) was determined as 91.7%; in the assay with "hot plate" test in mice (1 h, 60 minutes), 68.8%; in the assay with "hot plate" test in mice (2 h, 120 minutes) it was 142%.

For the compound `O=C(CCc1ccccc1)N[C@@H](Cc1ccc(O)cc1)C(=O)OCc1ccccc1` [Compound XXX, 3-phenylproponyltyrosine benzyl ester], the “Analgetic effect, %” value in assay [1] is 36.1%. The “C, % to the control” value in assay [1] was determined as 63.9%. Further, in assay [1], the “C ± m (the number of contortions for 15 minutes)” value is listed as 11.9 ± 1.7. Also, the “Analgesia (%)” value in the assay with "hot plate" test in mice (30 minutes) amounted to 68.3%; in the assay on "hot plate" test in mice (60 minutes), 113.8%; in the assay on "hot plate" test in mice (120 minutes), 121.9%. Besides, the “latent time … M ± m” value in the assay with "hot plate" test in mice (30 minutes post administration) was 6.9 ± 0.8 s; in the assay on "hot plate" test in mice (60 minutes post administration), 9.0 ± 0.9 s; with "hot plate" test in mice (setting [2]) it was 9.1 ± 1.4 s. Besides, the entries for the “Latent time of NT (%)” value with "hot plate" test in mice (30 minutes), in the assay with "hot plate" test in mice (60 minutes) and in the assay on "hot plate" test in mice (120 minutes) were 168.3%, 213.8% and 221.9%, respectively.
